Reference: PMC12571268, “Functional expression of a Mo-dependent formate dehydrogenase in Escherichia coli under aerobic conditions” (PLOS One, 2025)

Biological target: T1, TsFDH (formate dehydrogenase of Thiobacillus sp. KNK65MA) (Thiobacillus sp. KNK65MA, UniProt Q76EB7)
T1 construct: gene fdh65MA; full-length synthetic gene codon-optimized for E. coli on pZE plasmid pGEN1395 in E. coli delta-lpd; clarified lysate; metal-independent
T1 sequence (Q76EB7 1-401): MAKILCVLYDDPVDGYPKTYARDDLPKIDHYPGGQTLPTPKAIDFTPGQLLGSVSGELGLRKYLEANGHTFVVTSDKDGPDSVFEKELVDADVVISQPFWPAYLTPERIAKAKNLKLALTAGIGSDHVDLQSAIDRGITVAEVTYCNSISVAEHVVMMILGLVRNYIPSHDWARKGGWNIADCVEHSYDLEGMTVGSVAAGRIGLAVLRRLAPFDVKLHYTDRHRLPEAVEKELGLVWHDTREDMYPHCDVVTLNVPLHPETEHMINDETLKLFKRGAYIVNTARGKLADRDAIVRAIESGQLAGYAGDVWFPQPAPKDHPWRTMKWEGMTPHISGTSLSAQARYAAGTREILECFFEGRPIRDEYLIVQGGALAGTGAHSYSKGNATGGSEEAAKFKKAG
Experiment: NADH formation at […] nm in clarified lysate, blank without formate subtracted
Assay type: biochemical
Settings: 100 mM formate, 5 mM NAD+, 100 mM Tris pH 9.0; plasmid-free strains as control

O=CO [formate]
NADH formation at 340 nm in clarified lysate, blank without formate subtracted: lysates of the strains containing the FDH from Thiobacillus yielded higher specific activity
